Like-named read-outs stand apart in the source and are kept apart here.
Columns and labels:
[1] = test system: NCI-60 human tumor cell line panel; assay: NCI-60 human tumor cell line screen (GI50); format: cell-based
[2] = biological target: A-Raf(h) (Homo sapiens (Human), UniProt P10398); assay: KinaseProfiler panel; format: biochemical; parameters: dose or concentration left out as unconfirmed; conditions: activity remaining
[3] = biological target: ARK5(h) (Homo sapiens (Human), UniProt O60285); assay: KinaseProfiler panel; format: biochemical; parameters: dose or concentration left out as unconfirmed; conditions: activity remaining
Chain of ARK5(h) (O60285 whole entry): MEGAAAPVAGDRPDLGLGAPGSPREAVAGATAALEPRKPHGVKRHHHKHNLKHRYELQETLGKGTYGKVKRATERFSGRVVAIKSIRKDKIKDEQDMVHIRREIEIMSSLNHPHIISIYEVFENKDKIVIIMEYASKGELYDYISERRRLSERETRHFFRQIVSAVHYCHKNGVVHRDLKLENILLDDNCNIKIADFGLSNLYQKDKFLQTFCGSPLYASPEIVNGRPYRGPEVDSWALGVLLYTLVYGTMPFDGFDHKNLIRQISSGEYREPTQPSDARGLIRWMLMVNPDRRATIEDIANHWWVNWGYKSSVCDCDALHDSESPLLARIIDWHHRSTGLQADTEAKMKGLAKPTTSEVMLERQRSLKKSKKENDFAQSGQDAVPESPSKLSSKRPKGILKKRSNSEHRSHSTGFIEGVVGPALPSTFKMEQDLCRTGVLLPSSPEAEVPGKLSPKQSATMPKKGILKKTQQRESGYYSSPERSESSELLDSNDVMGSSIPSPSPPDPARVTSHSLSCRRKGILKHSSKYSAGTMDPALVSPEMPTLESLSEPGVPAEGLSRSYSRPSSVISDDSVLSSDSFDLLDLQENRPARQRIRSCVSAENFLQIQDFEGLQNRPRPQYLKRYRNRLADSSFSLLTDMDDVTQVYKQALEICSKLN

[4] = biological target: GRK2(h) (Homo sapiens (Human), UniProt P25098); assay: KinaseProfiler panel; format: biochemical; parameters: dose or concentration left out as unconfirmed; conditions: activity remaining
[5] = biological target: MKK3(h) (Homo sapiens (Human), UniProt P46734); assay: KinaseProfiler panel; format: biochemical; parameters: dose or concentration left out as unconfirmed; conditions: activity remaining
Chain of MKK3(h) (P46734 whole entry): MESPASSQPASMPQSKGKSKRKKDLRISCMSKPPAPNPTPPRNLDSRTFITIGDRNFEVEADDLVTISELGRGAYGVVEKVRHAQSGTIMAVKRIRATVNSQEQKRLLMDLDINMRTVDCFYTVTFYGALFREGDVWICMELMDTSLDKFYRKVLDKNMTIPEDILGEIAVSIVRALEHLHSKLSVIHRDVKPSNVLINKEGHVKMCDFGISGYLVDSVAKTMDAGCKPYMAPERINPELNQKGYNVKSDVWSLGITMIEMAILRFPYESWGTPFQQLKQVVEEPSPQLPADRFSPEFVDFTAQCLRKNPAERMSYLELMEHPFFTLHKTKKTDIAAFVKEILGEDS

[6] = biological target: NEK9(h) (Homo sapiens (Human), UniProt Q8TD19); assay: KinaseProfiler panel; format: biochemical; parameters: dose or concentration left out as unconfirmed; conditions: activity remaining
[7] = biological target: Pim-3(h) (Homo sapiens (Human), UniProt Q86V86); assay: KinaseProfiler panel; format: biochemical; parameters: dose or concentration left out as unconfirmed; conditions: activity remaining
[8] = biological target: PKA(h) (Homo sapiens (Human), UniProt P17612); assay: KinaseProfiler panel; format: biochemical; parameters: dose or concentration left out as unconfirmed; conditions: activity remaining
[9] = biological target: PKCβII(h) (Homo sapiens (Human), UniProt P05771); assay: KinaseProfiler panel; format: biochemical; parameters: dose or concentration left out as unconfirmed; conditions: activity remaining
Chain of PKCβII(h) (P05771 other isoform, or with tags, fused parts or gaps): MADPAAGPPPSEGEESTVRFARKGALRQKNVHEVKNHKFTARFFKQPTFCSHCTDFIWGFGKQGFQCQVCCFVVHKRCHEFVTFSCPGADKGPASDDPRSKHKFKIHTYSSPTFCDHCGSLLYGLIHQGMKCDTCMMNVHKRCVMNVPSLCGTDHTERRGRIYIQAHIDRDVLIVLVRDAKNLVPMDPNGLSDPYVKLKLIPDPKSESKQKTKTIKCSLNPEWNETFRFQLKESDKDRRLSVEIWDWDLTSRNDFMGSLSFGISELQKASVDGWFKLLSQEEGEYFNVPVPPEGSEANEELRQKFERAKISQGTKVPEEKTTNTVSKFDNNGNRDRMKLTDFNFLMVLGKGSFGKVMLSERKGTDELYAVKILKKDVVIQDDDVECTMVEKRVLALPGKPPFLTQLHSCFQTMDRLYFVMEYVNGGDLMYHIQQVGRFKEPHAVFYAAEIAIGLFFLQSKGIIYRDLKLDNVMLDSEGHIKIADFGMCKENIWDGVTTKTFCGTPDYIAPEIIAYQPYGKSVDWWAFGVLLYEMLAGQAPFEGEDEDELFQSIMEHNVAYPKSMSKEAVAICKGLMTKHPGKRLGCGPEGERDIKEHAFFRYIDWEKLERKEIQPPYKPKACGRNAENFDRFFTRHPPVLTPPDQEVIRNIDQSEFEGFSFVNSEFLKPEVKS

[10] = biological target: PKD3(h) (Homo sapiens (Human), UniProt O94806); assay: KinaseProfiler panel; format: biochemical; parameters: dose or concentration left out as unconfirmed; conditions: activity remaining
Chain of PKD3(h) (O94806 whole entry): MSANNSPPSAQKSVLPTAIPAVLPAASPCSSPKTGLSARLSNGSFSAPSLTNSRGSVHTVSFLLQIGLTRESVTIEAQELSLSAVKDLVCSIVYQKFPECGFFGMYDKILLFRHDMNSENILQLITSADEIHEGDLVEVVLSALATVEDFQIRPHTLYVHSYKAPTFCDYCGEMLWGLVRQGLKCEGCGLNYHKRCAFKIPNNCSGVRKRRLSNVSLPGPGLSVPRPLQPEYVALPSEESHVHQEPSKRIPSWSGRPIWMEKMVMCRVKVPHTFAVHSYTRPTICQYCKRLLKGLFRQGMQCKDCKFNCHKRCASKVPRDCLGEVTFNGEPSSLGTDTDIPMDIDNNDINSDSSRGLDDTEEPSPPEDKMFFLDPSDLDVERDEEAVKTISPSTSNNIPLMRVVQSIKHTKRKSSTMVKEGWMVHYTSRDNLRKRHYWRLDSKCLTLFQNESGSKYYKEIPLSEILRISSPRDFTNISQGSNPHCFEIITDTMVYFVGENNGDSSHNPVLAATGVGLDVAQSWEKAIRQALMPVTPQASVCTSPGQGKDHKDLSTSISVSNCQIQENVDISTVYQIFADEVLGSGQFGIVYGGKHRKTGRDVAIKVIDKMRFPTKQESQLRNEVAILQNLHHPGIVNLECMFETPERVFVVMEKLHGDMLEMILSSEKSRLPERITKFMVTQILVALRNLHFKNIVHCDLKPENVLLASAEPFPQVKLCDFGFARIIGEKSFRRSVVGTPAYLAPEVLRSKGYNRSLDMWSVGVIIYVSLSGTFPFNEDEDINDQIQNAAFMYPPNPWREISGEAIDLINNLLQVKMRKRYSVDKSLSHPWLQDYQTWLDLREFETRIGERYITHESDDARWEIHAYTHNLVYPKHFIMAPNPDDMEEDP

[11] = biological target: PKG1α(h) (Homo sapiens (Human), UniProt Q13976); assay: KinaseProfiler panel; format: biochemical; parameters: dose or concentration left out as unconfirmed; conditions: activity remaining
Chain of PKG1α(h) (Q13976 whole entry): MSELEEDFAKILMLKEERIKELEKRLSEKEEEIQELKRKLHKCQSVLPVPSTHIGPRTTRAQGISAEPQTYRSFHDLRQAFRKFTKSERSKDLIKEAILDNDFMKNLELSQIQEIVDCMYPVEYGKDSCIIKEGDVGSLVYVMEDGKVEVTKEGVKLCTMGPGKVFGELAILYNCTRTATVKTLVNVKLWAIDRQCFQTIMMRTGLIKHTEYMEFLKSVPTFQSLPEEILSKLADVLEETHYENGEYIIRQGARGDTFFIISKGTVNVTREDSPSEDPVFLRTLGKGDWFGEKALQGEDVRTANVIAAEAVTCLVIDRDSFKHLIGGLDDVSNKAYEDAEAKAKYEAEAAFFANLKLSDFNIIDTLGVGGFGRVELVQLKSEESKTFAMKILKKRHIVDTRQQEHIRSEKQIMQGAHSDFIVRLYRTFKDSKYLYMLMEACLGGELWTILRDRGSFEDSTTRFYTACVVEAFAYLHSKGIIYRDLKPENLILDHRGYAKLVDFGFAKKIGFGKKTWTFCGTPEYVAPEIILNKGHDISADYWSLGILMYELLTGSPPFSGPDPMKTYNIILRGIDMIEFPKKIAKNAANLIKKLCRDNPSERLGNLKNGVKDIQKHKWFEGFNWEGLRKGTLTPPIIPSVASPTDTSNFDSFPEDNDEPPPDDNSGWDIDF

[12] = biological target: SIK2(h) (Homo sapiens (Human), UniProt Q9H0K1); assay: KinaseProfiler panel; format: biochemical; parameters: dose or concentration left out as unconfirmed; conditions: activity remaining
Chain of SIK2(h) (Q9H0K1 whole entry): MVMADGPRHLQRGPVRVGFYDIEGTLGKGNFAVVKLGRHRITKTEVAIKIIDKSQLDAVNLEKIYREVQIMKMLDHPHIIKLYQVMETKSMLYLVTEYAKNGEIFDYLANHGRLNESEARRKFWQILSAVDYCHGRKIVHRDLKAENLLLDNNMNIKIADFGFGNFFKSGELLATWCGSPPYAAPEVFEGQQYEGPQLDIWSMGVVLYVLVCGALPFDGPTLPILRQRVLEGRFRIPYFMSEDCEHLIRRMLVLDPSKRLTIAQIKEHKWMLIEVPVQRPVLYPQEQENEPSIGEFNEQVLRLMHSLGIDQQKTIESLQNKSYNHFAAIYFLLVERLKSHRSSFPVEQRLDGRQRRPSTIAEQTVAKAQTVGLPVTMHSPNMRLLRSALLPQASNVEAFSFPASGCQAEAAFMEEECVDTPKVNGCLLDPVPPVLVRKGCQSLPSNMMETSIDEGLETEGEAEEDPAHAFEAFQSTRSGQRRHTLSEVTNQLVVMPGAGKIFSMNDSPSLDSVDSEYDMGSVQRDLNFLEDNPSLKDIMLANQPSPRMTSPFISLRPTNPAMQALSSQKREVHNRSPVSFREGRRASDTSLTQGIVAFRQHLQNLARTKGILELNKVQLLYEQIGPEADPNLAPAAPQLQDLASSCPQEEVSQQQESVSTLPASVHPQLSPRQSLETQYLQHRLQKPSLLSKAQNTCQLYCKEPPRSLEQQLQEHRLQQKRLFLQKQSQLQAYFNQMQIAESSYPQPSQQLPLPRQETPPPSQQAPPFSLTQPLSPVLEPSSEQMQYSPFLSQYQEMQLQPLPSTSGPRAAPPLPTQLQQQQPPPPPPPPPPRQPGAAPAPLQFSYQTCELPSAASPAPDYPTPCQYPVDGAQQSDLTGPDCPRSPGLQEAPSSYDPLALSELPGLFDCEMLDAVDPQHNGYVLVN

Compound: Cc1cc2c(-c3ccc(NC(=O)[C@H](N)CC(C)(C)C)cc3C)ccnc2[nH]1 [Compound F-90, (2R)-2-Amino-4,4-dimethyl-N-[3-methyl-4-(2-methyl-1H-pyrrolo[2,3-b]pyridin-4-yl)phenyl]pentanamide]
- GI50 ([1]; Homo sapiens, SK-MEL-28, SK-MEL-28, Melanoma, read-out: GI50): 8.5 µM
- GI50 ([1]; Homo sapiens, SK-OV-3, SK-OV-3, Ovarian Cancer, read-out: GI50): 12.4 µM
- GI50 ([1]; Homo sapiens, SN12C, Renal Cancer, read-out: GI50): 11.1 µM
- GI50 ([1]; Homo sapiens, SNB-19, SNB-19, CNS Cancer, read-out: GI50): 11.3 µM
- GI50 ([1]; Homo sapiens, SNB-75, SNB-75, CNS Cancer, read-out: GI50): 4.7 µM
- GI50 ([1]; Homo sapiens, SR, Leukemia, read-out: GI50): 2.1 µM
- GI50 ([1]; Homo sapiens, SW-620, SW-620, Colon Cancer, read-out: GI50): 5.6 µM
- GI50 ([1]; Homo sapiens, T47D, T-47D, Breast Cancer, read-out: GI50): 6.7 µM
- GI50 ([1]; Homo sapiens, TK-10, TK-10, Renal Cancer, read-out: GI50): 12.6 µM
- GI50 ([1]; Homo sapiens, U-251, U251, CNS Cancer, read-out: GI50): 6 µM
- GI50 ([1]; Homo sapiens, UACC-62, UACC-62, Melanoma, read-out: GI50): 8.6 µM
- GI50 ([1]; Homo sapiens, UACC-257, UACC-257, Melanoma, read-out: GI50): 10.5 µM
- GI50 ([1]; Homo sapiens, UO-31, UO-31, Renal Cancer, read-out: GI50): 4.6 µM
- GI50 ([1]; IGROV1, Ovarian Cancer): −4.915 Log(M)
- GI50 ([1]; K-562, Leukemia): −5.551 Log(M)
- GI50 ([1]; KM12, Colon Cancer): −5.215 Log(M)
- GI50 ([1]; LOX IMVI, Melanoma): −5.211 Log(M)
- GI50 ([1]; M14, Melanoma): −4.959 Log(M)
- GI50 ([1]; MALME-3M, Melanoma): −4.992 Log(M)
- GI50 ([1]; MCF7, Breast Cancer): −5.256 Log(M)
- GI50 ([1]; MDA-MB-231/ATCC, Breast Cancer): −5.129 Log(M)
- GI50 ([1]; MDA-MB-435, Breast Cancer): −5.155 Log(M)
- GI50 ([1]; MDA-MB-468, Breast Cancer): −5.564 Log(M)
- GI50 ([1]; MOLT-4, Leukemia): −5.329 Log(M)
- GI50 ([1]; NCI-H23, Non-Small Cell Lung Cancer): −4.915 Log(M)
- GI50 ([1]; NCI-H226, Non-Small Cell Lung Cancer): −4.971 Log(M)
- GI50 ([1]; NCI-H322M, Non-Small Cell Lung Cancer): −4.845 Log(M)
- GI50 ([1]; NCI-H460, Non-Small Cell Lung Cancer): −5.245 Log(M)
- GI50 ([1]; NCI-H522, Non-Small Cell Lung Cancer): −4.887 Log(M)
- GI50 ([1]; NCI/ADR-RES, Breast Cancer): −4.873 Log(M)
- GI50 ([1]; OVCAR-3, Ovarian Cancer): −4.937 Log(M)
- GI50 ([1]; OVCAR-4, Ovarian Cancer): −5.158 Log(M)
- GI50 ([1]; OVCAR-5, Ovarian Cancer): −4.982 Log(M)
- GI50 ([1]; OVCAR-8, Ovarian Cancer): −4.867 Log(M)
- GI50 ([1]; PC-3, Prostate Cancer): −5.102 Log(M)
- GI50 ([1]; RPMI-8226, Leukemia): −5.557 Log(M)
- GI50 ([1]; RXF 393, Renal Cancer): −5.434 Log(M)
- GI50 ([1]; SF-268, CNS Cancer): −4.953 Log(M)
- GI50 ([1]; SF-295, CNS Cancer): −5.079 Log(M)
- GI50 ([1]; SF-539, CNS Cancer): −5.098 Log(M)
- GI50 ([1]; SK-MEL-2, Melanoma): −4.853 Log(M)
- GI50 ([1]; SK-MEL-5, Melanoma): −5.609 Log(M)
- GI50 ([1]; SK-MEL-28, Melanoma): −5.072 Log(M)
- GI50 ([1]; SK-OV-3, Ovarian Cancer): −4.905 Log(M)
- GI50 ([1]; SN12C, Renal Cancer): −4.953 Log(M)
- GI50 ([1]; SNB-19, CNS Cancer): −4.945 Log(M)
- GI50 ([1]; SNB-75, CNS Cancer): −5.326 Log(M)
- GI50 ([1]; SR, Leukemia): −5.682 Log(M)
- GI50 ([1]; SW-620, Colon Cancer): −5.250 Log(M)
- GI50 ([1]; T-47D, Breast Cancer): −5.174 Log(M)
- GI50 ([1]; TK-10, Renal Cancer): −4.901 Log(M)
- GI50 ([1]; U251, CNS Cancer): −5.222 Log(M)
- GI50 ([1]; UACC-62, Melanoma): −5.066 Log(M)
- GI50 ([1]; UACC-257, Melanoma): −4.977 Log(M)
- GI50 ([1]; UO-31, Renal Cancer): −5.335 Log(M)
- % Activity [2]: 97%
- % Activity [3]: 85%
- % Activity [4]: 95%
- % Activity [5]: 97%
- % Activity [6]: 79%
- % Activity [7]: 103%
- % Activity [8]: 109%
- % Activity [9]: 87%
- % Activity [10]: 97%
- % Activity [11]: 118%
- % Activity [12]: 109%

— patent US20250243196A1, “CITRON KINASE INHIBITORS” (The Cleveland Clinic Foundation, priority 2021, published 2025)
